In US20250152627A1, “COMPOSITIONS AND METHODS FOR ENHANCING IMMUNE CELL FUNCTION USING MODIFIED CELLS WITH GLYCOCALYX EDITING ENZYMES” (Cornell University, priority 2021, published 2025):

Experiments:
Assay type in all cases: cell-based
1E7 cells = test: Ring-SAIM glycocalyx material thickness, wild-type 1E7 cells; details: wild-type 1E7 cells, 1,000 ng/mL doxycycline induction; TD139 at 10 μm
Description: Silicon wafers with ˜1900 nm thermal oxide (Addison Engineering) were diced into 7 mm by 7 mm chips, and the oxide layer thickness for each chip was measured with a FilMetrics F50-EXR. Prior to use, the chips were then cleaned with 1:1 methanol and hydrochloric acid for 15 minutes, followed by 1 minutes in a plasma cleaner (Harrick Plasma, PDC-001). The chips were incubated with 4% (v/v) (3-mercaptopropyl)trimethoxysilane in absolute ethanol for 30 minutes at room temperature. After washing with absolute ethanol, the chips were subsequently incubated with 4 mM 4-maleimidobutyric acid N-hydroxysuccinimide ester in absolute ethanol for 30 minutes and rinsed with PBS. 50 μg/mL human plasma fibronectin in PBS was incubated with the functionalized chips overnight at 4° C. for conjugation. Cells were seeded onto the chips at 2×10^4 cm^−2 in full culture medium with varying doxycycline concentrations and incubated for 24 hours. Cells expressing different length of Muc1 were labelled with GFP nanobody conjugated to Alexa Fluor 647 in MCF10A growth media for 10 minutes at 37° C. Cells were labelled with MemGlow dye or CellBrite Steady 550 in serum-free, phenol red-free DMEM/F12 for 10 minutes at 37° C. Sample were then rinsed 3× in PBS, inverted into a 35 mm glass-bottom imaging dish containing imaging buffer (MemGlow dye or CellBrite dye: serum-free, phenol red-free DMEM/F12, Alexa Fluor 647-conjugated GFP nanobody: phenol red-free DMEM/F12 supplemented with 5% horse serum, 20 ng/mL EGF, […], 500 ng/mL hydrocortisone, 100 ng/mL cholera toxin and 1× penicillin/streptomycin) and imaged at 37° C. […]
(§1) Scanning angle interference microscopy (SAIM) was conducted on a custom circle-scanning microscope.^40 The core of the setup was an inverted fluorescence microscope (Ti-E, Nikon). […] Fluorescence emission was collected with a quad band filter cube and single band filters (TRF89901-EMv2, Chroma) mounted in a motorized filter wheel (Sutter). […]

[1] = system: 1E7 cells overexpressing GCNT1; test: Ring-SAIM glycocalyx material thickness, GCNT1 overexpressing 1E7 cells; details: 1E7 cells overexpressing GCNT1, treatment with recombinant galectin
Description: Silicon wafers with ˜1900 nm thermal oxide (Addison Engineering) were diced into 7 mm by 7 mm chips, and the oxide layer thickness for each chip was measured with a FilMetrics F50-EXR. Prior to use, the chips were then cleaned with 1:1 methanol and hydrochloric acid for 15 minutes, followed by 1 minutes in a plasma cleaner (Harrick Plasma, PDC-001). The chips were incubated with 4% (v/v) (3-mercaptopropyl)trimethoxysilane in absolute ethanol for 30 minutes at room temperature. After washing with absolute ethanol, the chips were subsequently incubated with 4 mM 4-maleimidobutyric acid N-hydroxysuccinimide ester in absolute ethanol for 30 minutes and rinsed with PBS. 50 μg/mL human plasma fibronectin in PBS was incubated with the functionalized chips overnight at 4° C. for conjugation. Cells were seeded onto the chips at 2×10^4 cm^−2 in full culture medium with varying doxycycline concentrations and incubated for 24 hours. […]
as §1

cell surface Muc1 = test: Fluorescence recovery after photobleaching (FRAP) of Muc1-GFP; details: 1E7 GCNT1 OE with 10 μM recombinant human galectin-1
Description: FRAP experiments were performed by using a Zeiss i880 confocal microscope with 63×N.A. 1.4 Oil immersion lens. Five pre-bleached images were firstly taken and photobleaching was performed with 488 nm laser for about 10 seconds to bleach a target area of 2.55 μm×2.55 μm. 1E7 clone (n=11) and 1E7 GCNT1 overexpression (n=10) were used to measure mobile fraction of Muc1-GFP. 10 μM recombinant human galectin-1 was incubated with 1E7 GCNT1 cells for 10 minutes at 37° C. (n=9). Intensity profiles were corrected by normalizing to the time-course decay of GFP signal in non-bleached area by using MATLAB code from Advanced Imaging Center (https://www.mathworks.com/matlabcentral/fileexchange/47327-frap-zip)

Compound	change of the material thickness of the glycocalyx (1E7 cells)	decrease of glycocalyx thickness compared to untreated cells [1] [nm]	effect on mobility and mobile fraction of cell surface Muc1 (cell surface Muc1)
recombinant galectin-3: recombinant human galectin-3 (LGALS3) expressed in E. coli	did not significantly change	9.5	–
OC[C@H]1O[C@@H](S[C@@H]2O[C@H](CO)[C@H](O)[C@H](n3cc(-c4cccc(F)c4)nn3)[C@H]2O)[C@H](O)[C@@H](n2cc(-c3cccc(F)c3)nn2)[C@H]1O [TD139]	did not significantly change	–	–
recombinant galectin-1: recombinant human galectin-1 (LGALS1) expressed in E. coli	did not significantly change	19.4	does not significantly affect
